For one compound, t1/2 results are on record in article PMC13304593 (Pharmaceuticals, 2026).

A short description of this data set: Pharmacokinetics of DTX in mice after oral administration. In kind it is in vivo, Kunming mice. To be noted: lung, oral 20 mg/kg DTX or equivalent.

The structures appear in SMILES notation.

Protocol: Briefly, the samples were precipitated with three volumes of acetonitrile and analyzed using an LC-MS/MS system comprising a Waters ACQUITY ultra-high-performance liquid chromatography (UPLC) system (Waters Corporation, Milford, MA, USA) and an API 5500 mass spectrometer (AB Sciex LLC, Framingham, MA, USA) equipped with an electrospray ionization source. Separation was performed on an ACQUITY BEH C18 column (2.1 × 100 mm, 1.7 μm; Waters) using a gradient elution.
One hundred specific-pathogen-free (SPF) male Kunming mice (body weight: 22–24 g) were purchased from the Beijing Vital River Laboratory Animal Technology Co., Ltd. (Beijing, China). Mice were housed in an air-conditioned room maintained at 22–24 °C with a 12 h light/12 h dark cycle. Prior to the experiment, mice were fasted for 12 h with free access to water.
Mice were randomly divided by body weight into two main groups, each subdivided into 10 subgroups. […] At each time point post-administration (0.083, 0.25, 0.5, 1, 2, 3, 4, 6, 8, and 12 h), one subgroup of mice from each main group was anesthetized with Zoletil® 50. Systemic blood was collected and heparinized to prepare the plasma. Next, the animals were immediately euthanized by cervical dislocation under deep anesthesia prior to liver and lung excision. […]
Quantitative data are expressed as the mean ± SD.

On to `CC(=O)O[C@@]12CO[C@@H]1C[C@H](O)[C@@]1(C)C(=O)[C@H](O)C3=C(C)[C@@H](OC(=O)[C@H](O)[C@@H](NC(=O)OC(C)(C)C)c4ccccc4)C[C@@](O)([C@@H](OC(=O)c4ccccc4)[C@H]21)C3(C)C` [DTX, docetaxel], for which the t1/2 was determined as 2.6 h.
